From patent US4535080A, “Derivatives of 2-piperazino-pyrimidine, methods for their preparation and their utilization as drugs or intermediates for drugs” (Pharmuka Laboratoires, priority 1981, dated 1985)
Where two headings read alike, the source gives them in different places.

What was measured:
[1] = tested on: alpha-2 adrenergic receptors; conditions: background statement; cited from earlier work
[2] = tested on: alpha adrenergic receptors; conditions: background statement; cited from earlier work
[3] = molecular target: T1, receptor sites of clonidine (rat cortex membranes) (Rattus norvegicus, UniProt P22909); assay: Affinity for the receptor sites of clonidine (3H clonidine binding, rat cortex membranes)
T1 construct: measured on rat cortex membranes; from tissue; host or cells: rat cortex membranes
T1 sequence (P22909 1-465): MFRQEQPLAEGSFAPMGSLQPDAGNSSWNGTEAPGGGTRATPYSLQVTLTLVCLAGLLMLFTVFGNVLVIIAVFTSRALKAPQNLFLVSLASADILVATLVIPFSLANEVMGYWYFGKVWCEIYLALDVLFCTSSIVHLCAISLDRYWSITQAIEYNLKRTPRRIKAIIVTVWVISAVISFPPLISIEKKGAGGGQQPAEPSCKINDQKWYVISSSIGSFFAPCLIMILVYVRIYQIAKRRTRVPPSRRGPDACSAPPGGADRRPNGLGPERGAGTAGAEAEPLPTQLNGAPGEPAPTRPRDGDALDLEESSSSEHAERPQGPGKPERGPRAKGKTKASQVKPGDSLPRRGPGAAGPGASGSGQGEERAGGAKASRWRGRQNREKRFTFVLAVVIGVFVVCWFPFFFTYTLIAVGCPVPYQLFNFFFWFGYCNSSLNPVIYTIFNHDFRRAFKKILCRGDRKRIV

SMILES	Ki [3] [nM]	also measured
Clc1cccc(Cl)c1N=C1NCCN1 [Clonidine, clonidine]		affinity for alpha-2 receptors [1]: strong affinity; behaviour towards alpha adrenergic receptors [2]: behaves as an agonist towards alpha adrenergic receptors
CN1CCN(c2nc(N)c(Cl)c(Cl)n2)CC1 [Example 8, 2-N-methylpiperazino-4-amino-5,6-dichloropyrimidine]	51	
CNc1nc(N2CCN(C)CC2)nc(Cl)c1Cl [Example 9, 2-N-methylpiperazino-4-methylamino-5,6-dichloro-pyrimidine]	44	
CC(C)Nc1nc(N2CCN(C)CC2)nc(Cl)c1Cl [Example 10, 2-N-methylpiperazino-4-isopropylamino-5,6-dichloropyrimidine]	5	
COc1c(Cl)nc(N2CCN(C)CC2)nc1NC(C)C [Example 12, 2-N-methylpiperazino-4-isopropylamino-5-methoxy-6-chloropyrimidine]		Ki ([3]; read-out: Ki): 51 nM
Cc1c(Cl)nc(N2CCN(C)CC2)nc1NC(C)C [Example 21, 2-N-methylpiperazino-4-isopropylamino-5-methyl-6-chloropyrimidine]	16	
CCc1c(Cl)nc(N2CCN(C)CC2)nc1NC(C)C [Example 25, 2-N-methylpiperazino-4-isopropylamino-5-ethyl-6-chloropyrimidine]		Ki ([3]; read-out: Ki): 51 nM
